According to patent US20230414611A1, “REFINED USES OF GABA A RECEPTOR MODULATORS IN TREATMENT OF FRAGILE X SYNDROME” (CHILDREN'S HOSPITAL MEDICAL CENTER, priority 2020, published 2023):

Legend:
[1] = tested on: adults with Fragile X Syndrome (FXS); assay: WJ auditory attention; type: in vivo, human; details: FMRP-present male patients
[2] = tested on: adults with Fragile X Syndrome (FXS); assay: EEG relative band power; type: in vivo, human
Excerpt: Brain cells communicate via electrical impulses and are active all the time, even a subject is asleep. Electroencephalogram (EEG) detects the electrical activity in the brain. EEG can measure alpha waves, beta waves, and gamma waves. FXS patients typically show low alpha (Alpha waves are involved in higher level, complex cognition) and elevated gamma (representing noise, excessive synaptic connectivity-brain cells over connecting). Gamma activations represent high frequency brain rhythms, which may coincide with functional brain activity and/or muscular activity.
EEG statistical analysis strategies used in this study include: (a) electrode-specific relative band power estimation; (b) applying crossover-trial modeling to validate the absence of period effect; and (c) testing the within-subject relative power change per condition (i.e., determining impact of AZD7325 on gamma power in a treated patient).

[3] = Placebo vs High dose, acute visit, FMRP undetectable subjects (n = 5)
[4] = Placebo vs High dose, acute visit, male subjects (n = 9)
[5] = Placebo vs High dose, chronic visit, FMRP undetectable subjects (n = 5)
[6] = Placebo vs High dose, chronic visit, all subjects (n = 12)
[7] = Placebo vs High dose, chronic visit, male subjects (n = 9)
[8] = Placebo vs Low dose, acute visit, all subjects (n = 12)
[9] = Placebo vs Low dose, acute visit, male subjects (n = 9)
[10] = Placebo vs Low dose, chronic visit, FMRP undetectable subjects (n = 5)
[11] = Placebo vs Low dose, chronic visit, all subjects (n = 12)
[12] = Placebo vs Low dose, chronic visit, male subjects (n = 9)
[13] = high dose relative to low dose, acute, male patients
[14] = high dose relative to low dose, acute, peripheral FMRP nondetectable patients
[15] = high dose relative to low dose, chronic, all patients
[16] = high dose relative to low dose, chronic, male patients
[17] = high dose relative to low dose, chronic, peripheral FMRP nondetectable patients
[18] = low dose vs placebo, chronic, male detectable FMRP group

`CCCNC(=O)c1nnc2c(-c3c(F)cccc3OC)cccc2c1N` [AZD7325, 4-amino-8-(2-fluoro-6-methoxyphenyl)-N-propylcinnoline-3-carboxamide] was tested, and the WJ auditory attention [1] was “trending increase”, the “EEG relative band power: alpha2” value [2, 3] was “local distant small clusters” and the “EEG relative band power: beta” value [2, 3] was “elevated broadly in the central and parietal regions”. The “EEG relative band power: delta” value [2, 3] was “local distant small clusters”, the “EEG relative band power: alpha2” value [2, 4] was “central frontal power decrease” and the “EEG relative band power: beta” value [2, 4] was “elevates a broad region in the central and parietal regions”. For the same molecule, the “EEG relative band power: gamma1” value [2, 4] was “elevated electrodes in the right frontal region”, the “EEG relative band power: beta” value [2, 5] was “isolated electrodes in the parietal and occipital areas elevated” and the “EEG relative band power: gamma” value [2, 5] was “isolated electrodes in the parietal and occipital areas elevated”. The “EEG relative band power: theta” value [2, 5] was “decreased in the posterior area”, the “EEG relative band power: beta” value [2, 6] was “electrodes in the parietal and occipital areas elevated” and the “EEG relative band power: gamma” value [2, 6] was “electrodes in the parietal and occipital areas elevated”. The “EEG relative band power: theta” value [2, 6] was “decrease in the central area”, the “EEG relative band power: beta” value [2, 7] was “electrodes in the parietal and occipital areas elevated” and the “EEG relative band power: gamma” value [2, 7] was “electrodes in the parietal and occipital areas elevated”. For the same molecule, the “EEG relative band power: theta” value [2, 7] was “decrease in the central area”, the “EEG relative band power: beta” value ([2]; Placebo vs Low dose, acute visit, FMRP undetectable subjects (n = 5)) was “limited numbers of significantly effected electrodes” and the “EEG relative band power: beta” value [2, 8] was “limited numbers of significantly effected electrodes”. The “EEG relative band power: theta” value [2, 8] was “limited numbers of significantly effected electrodes”, the “EEG relative band power: alpha” value [2, 9] was “limited numbers of significantly effected electrodes” and the “EEG relative band power: beta” value [2, 9] was “limited numbers of significantly effected electrodes”. The “EEG relative band power: beta” value [2, 10] was “elevates beta power”, the “EEG relative band power: theta” value [2, 10] was “reduces theta band power” and the “EEG relative band power: beta” value [2, 11] was “increases beta and gamma band in the parietal region”. The “EEG relative band power: gamma” value [2, 11] was “increases beta and gamma band in the parietal region”, the “EEG relative band power: theta” value [2, 11] was “reduces theta band” and the “EEG relative band power: alpha” value [2, 12] was “retain consistent”. For the same molecule, the “EEG relative band power: beta” value [2, 12] was “increases beta and gamma bands in the parietal”, the “EEG relative band power: theta” value [2, 12] was “reduces theta band” and the “EEG relative band power: beta” value ([2]; high dose relative to low dose, acute, all patients) was “elevate in multiple clusters”. For the same molecule, the “EEG relative band power: alpha2” value [2, 13] was “decreased power cluster in the right central region”, the “EEG relative band power: beta” value [2, 13] was “elevate in multiple clusters” and the “EEG relative band power: beta” value [2, 14] was “elevate in multiple clusters”. The “EEG relative band power: delta (left frontal cluster)” value [2, 14] was “reduced delta band power”, the “EEG relative band power: alpha2 (frontal)” value [2, 15] was “decrease” and the “EEG relative band power: beta” value [2, 15] was “scattered elevated spots”. For the same molecule, the “EEG relative band power: delta” value [2, 15] was “scattered elevated spots”, the “EEG relative band power: gamma” value [2, 15] was “scattered elevated spots” and the “EEG relative band power: alpha2 (frontal area)” value [2, 16] was “decrease in relative power”. For the same molecule, the “EEG relative band power: delta” value [2, 16] was “electrode in left central area elevated”, the “EEG relative band power: gamma sub-bands” value [2, 16] was “No significant change” and the “EEG relative band power: alpha2 (temporal side)” value [2, 17] was “decrease in relative power”. The “EEG relative band power: beta (temporal side)” value [2, 17] was “decrease in relative power”, the “EEG relative band power: gamma bands” value [2, 17] was “same occipital electrode elevated” and the “EEG power (beta band)” value ([2]; low dose vs placebo, chronic, female (detectable FMRP)) was “does not effect”. The EEG beta power [2, 18] was “elevates beta power”, the “EEG gamma 1 power (E31)” value [2, 18] was “elevates gamma 1 power” and the “EEG theta band power” value [2, 18] was “reduces theta band power”. For the same molecule, the “EEG band power: gamma bands” value ([2]; low dose vs placebo, chronic, male subjects, parietal) was “increases beta and gamma bands in the parietal”, the “EEG gamma 1 power (E31)” value ([2]; low dose vs placebo, chronic, nondetectable FMRP group) was “elevates gamma 1 power” and the “EEG gamma 1 power” value ([2]; low dose, chronic, female subjects) was “does not grow gamma 1 power”. For the same molecule, the “gamma waves (EEG)” value ([2]; low dose, male patients having undetectable peripheral FMRP) was “decreased gamma waves”.
